As usually defined, the Ki is the dissociation constant of the complex between target and ligand, obtained from inhibition or displacement.

This passage reports Ki results from patent publication US7544683B2, “Cyclohexyl derivatives” (Hoffmann-La Roche Inc., priority 2007, dated 2009).

T1 sequence (Q9Y5N1 whole entry): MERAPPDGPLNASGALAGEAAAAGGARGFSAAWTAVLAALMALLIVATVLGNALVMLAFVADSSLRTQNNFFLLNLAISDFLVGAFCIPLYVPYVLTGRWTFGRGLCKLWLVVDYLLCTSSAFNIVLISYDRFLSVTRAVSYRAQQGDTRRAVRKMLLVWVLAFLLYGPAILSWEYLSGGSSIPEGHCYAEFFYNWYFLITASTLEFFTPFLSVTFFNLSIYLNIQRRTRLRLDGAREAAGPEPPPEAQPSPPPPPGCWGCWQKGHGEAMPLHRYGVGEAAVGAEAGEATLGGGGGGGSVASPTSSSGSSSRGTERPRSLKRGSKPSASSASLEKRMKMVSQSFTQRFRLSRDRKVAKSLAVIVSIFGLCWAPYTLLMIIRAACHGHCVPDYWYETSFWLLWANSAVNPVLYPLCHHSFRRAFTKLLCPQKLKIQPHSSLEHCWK

The assay has as its target T1, histamine 3 receptor (H3R) (Homo sapiens, UniProt Q9Y5N1).
T1 construct: expressed in transfected cells; host or cells: CHO cells
Briefly: Binding assay with 3H-(R)α-methylhistamine, competition binding on membranes of the human H3R-CHO cell line. The conditions noted are these: competition with 3H(R)α-methylhistamine (1 nM), Ki calculated from IC50 by Cheng-Prusoff. Here is the method:
Binding Assay with ^3H-(R)α-methylhistamine
Saturation binding experiments were performed using HR3-CHO membranes prepared as described in Takahashi, K, Tokita, S., Kotani, H. (2003) J. Pharmacol. Exp. Therapeutics 307, 213-218.
An appropriate amount of membrane (60 to 80 μg protein/well) was incubated with increasing concentrations of ^3H(R)α-Methylhistamine di-hydrochloride (0.10 to 10 nM). Non specific binding was determined using a 200 fold excess of cold (R)α-Methylhistamine dihydrobromide (500 nM final concentration). The incubation was carried out at room temperature (in deep-well plates shaking for three hours). The final volume in each well was 250 μl. The incubation was followed by rapid filtration on GF/B filters (pre-soaked with 100 μl of 0.5% PEI in Tris 50 mM shaking at 200 rpm for two hours). The filtration was made using a cell-harvester and the filter plates were then washed five times with ice cold washing buffer containing 0.5 M NaCl. After harvesting, the plates were dried at 55° C. for 60 min, then we added scintillation fluid (Microscint 40, 40 microl in each well) and the amount of radioactivity on the filter was determined in Packard top-counter after shaking the plates for two hours at 200 rpm at room temperature.
Binding Buffer: 50 mM Tris-HCl pH 7.4 and 5 mM MgCl2×6H2O pH 7.4. Washing Buffer: 50 mM Tris-HCl pH 7.4 and 5 mM MgCl2×6H2O and 0.5 M NaCl pH 7.4.
Indirect measurement of affinity of H3R inverse agonists: twelve increasing concentrations (ranging from 10 μM to 0.3 nM) of the selected compounds were always tested in competition binding experiments using membrane of the human H3R-CHO cell line. An appropriate amount of protein, e.g. approximately 500 cpm binding of RAMH at Kd, were incubated for 1 hour at room temperature in 250 μl final volume in 96-well plates in presence of ^3H(R)α-methylhistamine (1 nM final concentration=Kd). Non-specific binding was determined using a 200 fold excess of cold (R)α-methylhistamine dihydrobromide.
All compounds were tested at a single concentration in duplicate. […] The concentration at which 50% inhibition of the radioligand ^3H(R)α-methylhistamine is obtained (the IC50) is determined from the linear regression of a plot of the logarithm of the concentration versus percent inhibition measured for the different concentrations. Ki's were calculated from IC50 based on Cheng-Prusoff equation (Cheng, Y, Prusoff, W H (1973) Biochem Pharmacol 22, 3099-3108): Ki=IC50/[1+D/Kd] wherein D is the concentration of the radioligand and Kd is the binding constant for the radioligand binding to the receptor under the conditions used in the competition experiment.
Consider `CC(C)c1nnc(-c2ccc(O[C@H]3CC[C@H](C(=O)N4CCN(C(C)C)CC4)CC3)cc2)o1` [Example 31, trans-{4-[4-(5-Isopropyl-[1,3,4]oxadiazol-2-yl)-phenoxy]-cyclohexyl}-(4-isopropyl-piperazin-1-yl)-methanone], for which the Ki was 5.6 nM.

Take `O=C([C@H]1CC[C@H](Oc2ccc(-n3cncn3)cc2)CC1)N1CCN(C2CCC2)CC1` [Example 1, Trans-(4-Cyclobutyl-piperazin-1-yl)-[4-(4-[1,2,4]triazol-1-yl-phenoxy)-cyclohexyl]-methanone]: the Ki was 6.5 nM. The value for `O=C1COCCN1c1ccc(O[C@H]2CC[C@H](C(=O)N3CCN(C4CCC4)CC3)CC2)cc1` [Example 42, trans-4-{4-[4-(4-Cyclobutyl-piperazine-1-carbonyl)-cyclohexyloxy]-phenyl}-morpholin-3-one] was 6.9 nM; that for `CC(C)N1CCN(C(=O)[C@H]2CC[C@H](Oc3ccc(-c4ccncc4)cc3)CC2)CC1` [Example 50, trans-(4-Isopropyl-piperazin-1-yl)-[4-(4-pyridin-4-yl-phenoxy)-cyclohexyl]-methanone] was 4.4 nM. Regarding `CNC(=O)c1csc(O[C@H]2CC[C@H](C(=O)N3CCN(C(C)C)CC3)CC2)n1` [Example 27, trans-2-[4-(4-Isopropyl-piperazine-1-carbonyl)-cyclohexyloxy]-thiazole-4-carboxylic acid methylamide], the Ki was 28.8 nM. Regarding `CS(=O)(=O)c1ccc(O[C@H]2CC[C@H](C(=O)N3CCN(C4CCC4)CC3)CC2)nc1` [Example 13, trans-(4-Cyclobutyl-piperazin-1-yl)-[4-(5-methanesulfonyl-pyridin-2-yloxy)-cyclohexyl]-methanone], the Ki was 11.2 nM.
